Experimental findings from patent US10130630B2, “BTK inhibitors” (MERCK SHARP & DOHME CORP., priority 2014, dated 2018) are described below.

For assay [1], the system named is adenosine uptake into HeLa cells. In words: [3H]Adenosine uptake assay in HeLa cells. Format: cell-based. As to conditions: Homo sapiens, HeLa, 60 minutes uptake, read-out: ADU inhibition IC50 (adenosine uptake inhibition potency).
The target of assay [2] is T1, BTK enzyme (full-length BTK, hBTK) (Homo sapiens, UniProt Q06187).
T1 construct: recombinant protein from baculovirus-transfected Sf9 cells: full-length BTK, 6HIS-tag cleaved; 6HIS (cleaved yes); made in house; host or cells: baculovirus-transfected Sf9 cells
The assay is described as follows: Btk enzyme activity assay (LANCE TR-FRET). As to conditions: 50 pM hBTK, 25 μM ATP, 60 minute compound and enzyme incubation, read-out: BTK binding IC50. The assay is classed as biochemical. The gist of the method:
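Full-length human BTK from Sf9 cells (His-tag cleaved; 50 pM final) was preincubated 60 min with compound in pH 7.5 HEPES/MgCl2 buffer. Reaction then ran 120 min with 2 μM biotin-A5 peptide and 25 μM ATP, read by TR-FRET (Eu anti-pTyr/streptavidin-Dylight 650, 665/615 nm ratio). IC50 came from a 4-parameter fit.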
(In general: In TR-FRET formats the signal depends on donor and acceptor labels being close together.)

T1 sequence (Q06187 whole entry): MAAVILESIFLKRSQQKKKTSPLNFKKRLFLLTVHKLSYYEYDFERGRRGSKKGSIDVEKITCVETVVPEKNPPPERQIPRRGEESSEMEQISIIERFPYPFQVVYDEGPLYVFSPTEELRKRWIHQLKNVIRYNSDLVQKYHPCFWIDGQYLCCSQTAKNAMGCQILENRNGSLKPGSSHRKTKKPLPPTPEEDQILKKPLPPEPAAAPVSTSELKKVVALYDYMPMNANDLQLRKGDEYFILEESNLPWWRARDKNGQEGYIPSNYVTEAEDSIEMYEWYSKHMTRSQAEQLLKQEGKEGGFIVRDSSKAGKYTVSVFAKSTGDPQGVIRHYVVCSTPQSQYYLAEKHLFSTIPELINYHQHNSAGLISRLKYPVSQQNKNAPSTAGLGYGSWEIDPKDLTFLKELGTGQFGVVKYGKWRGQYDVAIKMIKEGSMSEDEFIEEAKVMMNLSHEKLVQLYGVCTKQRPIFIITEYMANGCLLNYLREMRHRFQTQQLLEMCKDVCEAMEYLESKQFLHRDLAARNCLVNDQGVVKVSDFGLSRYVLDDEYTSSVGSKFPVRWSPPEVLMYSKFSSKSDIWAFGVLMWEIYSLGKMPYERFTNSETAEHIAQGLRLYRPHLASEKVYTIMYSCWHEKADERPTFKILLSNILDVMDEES

The IC50 is the concentration that inhibits the measured activity by half. Regarding `CCOc1cc(C(=O)Nc2cc(C(F)(F)F)ccn2)ccc1-c1nc([C@H]2CC[C@@H]3CC4(CC4)C(=O)N3C2)n2ccnc(N)c12` [Compound 48, 4-{8-amino-3-[(6′S,8a′R)-3′-oxohexahydrospiro[cyclopropane-1,2′-indolizin]-6′-yl]imidazo[1,5-a]pyrazin-1-yl}-3-ethoxy-N-[4-(trifluoromethyl)pyridin-2-yl]benzamide], the figures for the 50% inhibitory concentration (IC50) in assay [1] and in assay [2] were 998 nM and 1.19 nM, respectively.
